{"source": "patent US4459227A", "about": "“Para-hydroxyphenylhydrazines as in situ precursors of iminoquinones and quinones” (Duke University, priority 1981, dated 1984)", "key": {"Female DBA/2J mice": {"tested_on": "Female DBA/2J mice", "test": "In vivo toxicity (LD50, survival, histology)", "parameters": "key to Histologic Findings: Acute Renal Tubular Necrosis / Histologic Findings: Pulmonary Congestion and Edema: 0: absent; +: mild; ++: moderate; +++: severe", "settings": "for pulmonary congestion and edema (in words): Phe-CHP 600, Leu-CHP 1000, CHP-OEt 550 mg/kg", "method": "(§1) Female DBA/2J mice, 8 weeks old, were injected intraperitoneally with test compound solutions (X, XI, XII, XIII, […]) to give a final concentration of 30 mg/ml.\n(§2) In those groups receiving both test compound and cysteine, cysteine (1000 mg/kg) was given i.p. both 1 hour prior to and 2 or 3 hours after i.p. injection of the test compound. In Table 3 are the results of these experiments."}, "[1]": {"test": "In vivo toxicity (LD50, survival, histology)", "parameters": "species or system mice; key to Histologic Findings: Acute Renal Tubular Necrosis / Histologic Findings: Pulmonary Congestion and Edema: 0: absent; +: mild; ++: moderate; +++: severe", "settings": "mouse, in vivo, ip, mice; for NOAEL: read-out: non-toxic up to (dose)", "method": "as §1, §2"}, "[2]": {"target": "T1, Leucine Aminopeptidase (LAP), type III-CP (Sus scrofa, UniProt P28839)", "T1 sequence (P28839 33-519)": "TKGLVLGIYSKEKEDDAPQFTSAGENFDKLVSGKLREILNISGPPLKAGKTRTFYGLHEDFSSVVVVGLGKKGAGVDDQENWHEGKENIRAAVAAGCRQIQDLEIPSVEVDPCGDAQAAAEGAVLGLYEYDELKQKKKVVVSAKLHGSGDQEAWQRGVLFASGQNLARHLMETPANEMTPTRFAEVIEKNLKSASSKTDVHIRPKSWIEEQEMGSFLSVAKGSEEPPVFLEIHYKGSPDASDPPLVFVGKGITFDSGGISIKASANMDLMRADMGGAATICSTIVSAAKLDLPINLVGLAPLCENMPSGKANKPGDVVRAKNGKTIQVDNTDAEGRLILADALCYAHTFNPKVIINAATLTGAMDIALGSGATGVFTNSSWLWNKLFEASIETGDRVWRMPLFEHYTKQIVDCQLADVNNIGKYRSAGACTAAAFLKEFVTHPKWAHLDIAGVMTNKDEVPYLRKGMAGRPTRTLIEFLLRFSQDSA", "test": "Leucine aminopeptidase in vitro hydrolysis (TLC)", "format": "biochemical", "settings": "1 mg/ml AA-CHP, pH 9.0, up to 12 hours", "method": "Leucine Aminopeptidase (LAP), type III-CP (Sigma) was stored at 0°-4° C. in 0.75M saturated […], 0.1M Tris and 0.005M MgCl2 (pH 8) and contained 210 U/ml. Prior to the hydrolysis experiment, LAP (50λ) was activated by incubating it in 0.025M MnCl2 (0.2 ml), 0.5M Tris.HCl buffer (pH 9.0, 0.2 ml) and demineralized and ultra-filtered H2 O (0.6 ml) for at least 2 hours at 37° C. To each sample test tube was added AA-CHP (1.5 mg) in 0.02M Tris HCl buffer (pH 9.0, 0.5 ml) so that the final concentration was 1 mg/ml AA-CHP. […] They were dried and sprayed with 0.2% Ninhydrin in EtOH and the color was developed at 85° C. for 5 minutes. The in vitro hydrolysis of Leu-CHP by LAP was also concomitantly studied by scanning spectrophotometry at different times after the start of incubation with the enzyme. A blank reference cell containing only enzyme and buffer was used."}, "[3]": {"test": "Spectral study of rearrangement/reactions with nucleophiles, reducing and oxidizing agents", "format": "physicochemical", "method": "In order to characterize the products of hydrolysis of AA-CHP's, the hydrolysis of Leu-CHP by LAP was studied by absorption spectrophotometry. […] This was also true for the new maximum at 350 nm and for a second new \"maximum\" which appeared as a low, broad \"peak\" merging with 350 peak and centered at about 400 nm. However, by 22 minutes (not shown) the absorbance at 300 and 400 nm had diminished in intensity while the 350 maximum continued to increase, albeit at a slower rate. At pH 7.0 (FIG. 8B), the absorbance at 300 nm continued to slowly increase in intensity even up to 90 minutes after dissolving CHP-OEt (0.2 mg) in DMSO (0.02 ml) into 0.05M Phosphate buffer (3 ml). Furthermore, a second maximum at 350 nm developed but it remaind smaller in intensity than the 300 nm peak.\nTable 2 summarizes the results of several separate experiments involving the reactions of CHP-OEt, CHA-OEt, pIQ-OEt and pBQ (0.5-1.0 mM) with various nucleophiles (lysine, 3-MPA) reducing agents (NaBH4, 3-MPA) and oxidizing agents (NaIO4, O2) in ten-fold molar excess in Tris-HCl buffer (0.05M, pH 9.0).\nIn these studies, CHP-OEt, CHA-OEt and pBQ* were all pure compounds, thus, their absorption could be unequivocably assigned, pIQ-OEt was generated by the autoxidation of CHA-OEt in solution and its presence was noted by the appearance of one absorbance maximum at 400 nm and the development of a distinct yellow color to a previously clear solution of CHA-OEt. […] On the other hand, there was a dissimilarity between the spectra of CHP-OEt and CHA-OEt. CHA-OEt was oxidized by O2 or NaIO4 to the pIQ-OEt with a λmax =400 nm whereas NaIO4 had no effect on the rate or nature of spectral change that occurred when . . ."}, "[4]": {"test": "Stability in aqueous media", "format": "physicochemical"}, "mice": {"tested_on": "mice", "method": "Cysteine hydrochloride was neutralized with 1N NaOH and diluted with PBS so that the final concentration was 30 mg/ml. In those groups that received only the test compounds, a single dose (up to 1000 mg/kg) was given i.p. and any toxic deaths were autopsied and hematoxylin and eosin sections obtained."}, "[5]": {"settings": "compound added: 3-MPA, pH 8-9, ten-fold excess"}, "[6]": {"settings": "compound added: Lysine, pH 8-9, ten-fold excess"}}, "note": "Read-outs that look alike come from different tables or passages of the source."}
{"compound": "C[C@H](N)C(=O)NN(CC(=O)O)c1ccc(O)cc1", "note": "[Ala-CHP]", "values": [{"measurement": "survivors/total", "setting": "Female DBA/2J mice; 600 mg/kg i.p.", "value": "5/5"}, {"measurement": "survivors/total", "setting": "Female DBA/2J mice; 1000 mg/kg i.p.", "value": "6/6"}, {"measurement": "LD50", "setting": "[1]", "value": "> 1000", "unit": "mg/kg"}, {"measurement": "NOAEL", "setting": "[1]", "value": "≥ 1000", "unit": "mg/kg"}, {"measurement": "cleavage/hydrolysis by LAP", "setting": "[2]", "value": "able to cleave"}]}
{"compound": "CC(C)C[C@H](NC(=O)OC(C)(C)C)C(=O)NN(CC(=O)O)c1ccc(O)cc1", "note": "[Boc-Leu-CHP]", "values": [{"measurement": "cleavage/hydrolysis by LAP", "setting": "[2]", "value": "not"}]}
{"compound": "CCOC(=O)CNc1ccc(O)cc1", "note": "[CHA-OEt, N(p-hydroxyphenyl)glycine ethyl ester, reference compound]", "values": [{"measurement": "Final Maximum (nm)", "setting": "[3]; [5]", "value": 300, "unit": "nm"}, {"measurement": "Initial Maximum (nm)", "setting": "[3]; pH 8-9", "value": 300, "unit": "nm"}]}
{"compound": "CCOC(=O)CN(N)c1ccc(O)cc1", "note": "[CHP-OEt, α-N-(carboxymethyl ethyl ester)-p-hydroxyphenylhydrazine]", "values": [{"measurement": "absorption maximum", "setting": "[3]; 0.01M Tris buffer pH 9.0, FIG. 8A", "value": 300, "unit": "nm"}, {"measurement": "second absorption maximum", "setting": "[3]; 0.05M Phosphate buffer pH 7.0, FIG. 8B", "value": 350, "unit": "nm"}, {"measurement": "Final Maximum (nm)", "setting": "[3]; [5]", "value": 300, "unit": "nm"}, {"measurement": "Final Maximum (nm)", "setting": "[3]; [6]", "value": 350, "unit": "nm"}, {"measurement": "Final Maximum (nm), appears after NaBH4 has decomposed", "setting": "[3]; compound added: NaBH4, pH 8-9", "value": 350, "unit": "nm"}, {"measurement": "Final Maximum (nm)", "setting": "[3]; compound added: NaBH4, pH 8-9, ten-fold excess", "value": 300, "unit": "nm"}, {"measurement": "Final Maximum (nm)", "setting": "[3]; compound added: NaIO4, pH 8-9, ten-fold excess", "value": 350, "unit": "nm"}, {"measurement": "Final Maximum (nm)", "setting": "[3]; compound added: none, pH 8-9", "value": 350, "unit": "nm"}, {"measurement": "Initial Maximum (nm)", "setting": "[3]; pH 8-9", "value": 300, "unit": "nm"}, {"measurement": "survivors/total", "setting": "Female DBA/2J mice; 400 mg/kg i.p.", "value": "3/3"}, {"measurement": "deaths/total", "setting": "Female DBA/2J mice; 550 mg/kg i.p. in 7% DMSO", "value": "four of four"}, {"measurement": "survivors/total", "setting": "Female DBA/2J mice; 550 mg/kg i.p. in 7% DMSO", "value": "0/4"}, {"measurement": "time of death after treatment", "setting": "Female DBA/2J mice; 550 mg/kg i.p. in 7% DMSO", "value": "≤ 8", "unit": "h"}, {"measurement": "Histologic Findings: Acute Renal Tubular Necrosis", "setting": "Female DBA/2J mice; i.p., mice", "value": 0}, {"measurement": "Histologic Findings: Pulmonary Congestion and Edema", "setting": "Female DBA/2J mice; i.p., mice", "value": "+++"}, {"measurement": "microscopic examination of the heart", "setting": "Female DBA/2J mice; i.p., mice", "value": "no evidence of a toxic insult"}, {"measurement": "pulmonary congestion and edema (in words)", "setting": "Female DBA/2J mice; i.p.", "value": "moderate to severe"}, {"measurement": "LD50", "setting": "[1]", "value": "400 to 550", "unit": "mg/kg"}, {"measurement": "stability in aqueous media", "setting": "[4]", "value": "obvious instability"}, {"measurement": "stability in aqueous media", "setting": "[4]; listed as IVa", "value": "decomposes rapidly"}]}
{"compound": "N[C@@H](CCC(=O)O)C(=O)NN(CC(=O)O)c1ccc(O)cc1", "note": "[Glu-CHP]", "values": [{"measurement": "survivors/total", "setting": "Female DBA/2J mice; 600 mg/kg i.p.", "value": "5/5"}, {"measurement": "survivors/total", "setting": "Female DBA/2J mice; 1000 mg/kg i.p.", "value": "6/6"}, {"measurement": "LD50", "setting": "[1]", "value": "> 1000", "unit": "mg/kg"}, {"measurement": "NOAEL", "setting": "[1]", "value": "≥ 1000", "unit": "mg/kg"}, {"measurement": "cleavage/hydrolysis by LAP", "setting": "[2]", "value": "not"}]}
{"compound": "CCOC(=O)CN(NC(=O)[C@@H](N)CC(C)C)c1ccc(O)cc1", "note": "[Leu-CHP-OEt, β-N-(L-leucyl)-α-N-(carboxymethyl ethyl ester)-p-hydroxyphenylhydrazine]", "values": [{"measurement": "cleavage/hydrolysis by LAP", "setting": "[2]", "value": "able to cleave"}]}
{"compound": "NCCCC[C@H](N)C(=O)NN(CC(=O)O)c1ccc(O)cc1", "note": "[Lys-CHP]", "values": [{"measurement": "survivors/total", "setting": "Female DBA/2J mice; 600 mg/kg i.p.", "value": "5/5"}, {"measurement": "survivors/total", "setting": "Female DBA/2J mice; 1000 mg/kg i.p.", "value": "6/6"}, {"measurement": "LD50", "setting": "[1]", "value": "> 1000", "unit": "mg/kg"}, {"measurement": "NOAEL", "setting": "[1]", "value": "≥ 1000", "unit": "mg/kg"}, {"measurement": "cleavage/hydrolysis by LAP", "setting": "[2]", "value": "not"}]}
{"compound": "N[C@@H](Cc1ccccc1)C(=O)NN(CC(=O)O)c1ccc(O)cc1", "note": "[Phe-CHP]", "values": [{"measurement": "survivors/total", "setting": "Female DBA/2J mice; 400 mg/kg i.p.", "value": "3/5"}, {"measurement": "survivors/total", "setting": "Female DBA/2J mice; 600 mg/kg i.p.", "value": "1/7"}, {"measurement": "Histologic Findings: Acute Renal Tubular Necrosis", "setting": "Female DBA/2J mice; i.p., mice", "value": "+++"}, {"measurement": "acute renal tubular necrosis (in words)", "setting": "Female DBA/2J mice; i.p., mice", "value": "severe acute renal tubular coagulative necrosis"}, {"measurement": "relative toxicity", "setting": "Female DBA/2J mice; i.p., mice", "value": "most toxic"}, {"measurement": "pulmonary congestion and edema (in words)", "setting": "Female DBA/2J mice; i.p.", "value": "minimal"}, {"measurement": "LD50", "setting": "[1]", "value": 400, "unit": "mg/kg"}, {"measurement": "cleavage/hydrolysis by LAP", "setting": "[2]", "value": "able to cleave"}, {"measurement": "deaths/total", "setting": "mice; 600 mg/kg i.p., no cysteine", "value": "6 of 7"}, {"measurement": "deaths/total", "setting": "mice; 600 mg/kg i.p., no cysteine, listed as Phe--CHP", "value": "6/7"}, {"measurement": "deaths/total", "setting": "mice; Phe-CHP 600 mg/kg i.p. with cysteine 1000 mg/kg before and after", "value": "none"}, {"measurement": "deaths/total", "setting": "mice; Phe-CHP 600 mg/kg i.p. with cysteine 1000 mg/kg before and after, listed as Phe--CHP", "value": "0/3"}, {"measurement": "LD100", "setting": "mice; i.p., mice", "value": 600, "unit": "mg/kg"}, {"measurement": "Time of Death", "setting": "mice; no cysteine, Leu-CHP 1000 mg/kg, Phe-CHP 600 mg/kg i.p.", "value": "36 to 44", "unit": "h"}]}
{"compound": "CCOC(=O)CN=C1C=CC(=O)C=C1", "note": "[pIQ-OEt, reference compound]", "values": [{"measurement": "Final Maximum (nm)", "setting": "[3]; [6]", "value": 300, "unit": "nm"}, {"measurement": "λmax of pIQ-OEt formed by oxidation of CHA-OEt", "setting": "[3]; oxidation by O2 or NaIO4", "value": 400, "unit": "nm"}]}
